Molecules are shown by their SMILES.

The values that follow come from patent US20070111216A1 (priority 2004, published 2007).

Common to all, as to format: biochemical
Assay [1] concerns the target T1, E. coli RNA Polymerase Core Enzyme (Escherichia coli, UniProt P0A8T7+P0A8V2).
T1 construct: purchased EPICENTRE
As to the kind of experiment: Rolling circle transcription on circular 45mer ssDNA monitored in real time (SYBR Gold) and by gel electrophoresis. The note with it: 20 μg/ml α-amanitin, 10 min preincubation at 37° C., 0.5 mM each NTP, about 1.5 hours (FIG. 4).
Description: A single-stranded circularized 45mer DNA molecule having the same sequence as the circular 45mer used in Example 1 (Sequence I.D. No. 1) was obtained.
A reaction mixture was prepared containing 0.5 units of E. coli RNA Polymerase Core Enzyme, and a reaction buffer. The reaction mixture was incubated in the presence of 1 μM rifampicin, 20 U TAGETIN (Epicentre Biotechnologies), or 20 μg/ml α-amanitin for 10 min at 37° C. Subsequently, 0.8 pmole of the circularized 45mer DNA oligomer were added to the reaction mixture followed by incubation for 5 min at 37° C. Then SYBR Gold (Molecular Probes), which had been diluted 1:20,000, was added. Subsequently, ATP, CTP, GTP and UTP were added such that the concentration of each NTP was 0.5 mM in the final reaction mixture. Fluorescence was measured for about 1.5 hours in an iCycler iQ real-time PCR detection system (Bio-Rad Laboratories) using 490 nm excitation and 530 nm emission wavelengths. Afterwards, the reaction products were analyzed by gel electrophoresis.

The target in assay [2] is T2, E. coli RNA polymerase Holoenzyme (Escherichia coli, UniProt P0A8T7+P0A8V2).
T2 construct: purchased EPICENTRE
In words: Rolling circle transcription on circular 38mer ssDNA, products visualized by agarose gel electrophoresis. The note with it: 37° C. for 2 hours, 0.5 mM each NTP, concentration of inhibitor not printed (FIG. 2). On the procedure:
(§1) A single-stranded circularized 38mer DNA molecule having the same sequence as the circular 38mer used in Example 2 (Sequence I.D. No. 2) was obtained.
(§2) A reaction mixture was prepared comprising 5 pmoles of the circularized 38mer DNA molecule, 1 unit of E. coli RNA Polymerase Holoenzyme (EPICENTRE) or of soy germ RNA polymerase II, 0.5 mM of each NTP and a reaction buffer. The reaction mixture was incubated at 37° C. for 2 hours in the presence or absence of rifampicin or α-amanitin. The reaction products were visualized by agarose gel electrophoresis.

The test system of assay [3] is soy germ RNA polymerase II. The description is as above. As to conditions: 37° C. for 2 hours, 0.5 mM each NTP, concentration of inhibitor not printed (FIG. 2). The method, then:
as §1, §2

T1 sequence (P0A8V2 whole entry): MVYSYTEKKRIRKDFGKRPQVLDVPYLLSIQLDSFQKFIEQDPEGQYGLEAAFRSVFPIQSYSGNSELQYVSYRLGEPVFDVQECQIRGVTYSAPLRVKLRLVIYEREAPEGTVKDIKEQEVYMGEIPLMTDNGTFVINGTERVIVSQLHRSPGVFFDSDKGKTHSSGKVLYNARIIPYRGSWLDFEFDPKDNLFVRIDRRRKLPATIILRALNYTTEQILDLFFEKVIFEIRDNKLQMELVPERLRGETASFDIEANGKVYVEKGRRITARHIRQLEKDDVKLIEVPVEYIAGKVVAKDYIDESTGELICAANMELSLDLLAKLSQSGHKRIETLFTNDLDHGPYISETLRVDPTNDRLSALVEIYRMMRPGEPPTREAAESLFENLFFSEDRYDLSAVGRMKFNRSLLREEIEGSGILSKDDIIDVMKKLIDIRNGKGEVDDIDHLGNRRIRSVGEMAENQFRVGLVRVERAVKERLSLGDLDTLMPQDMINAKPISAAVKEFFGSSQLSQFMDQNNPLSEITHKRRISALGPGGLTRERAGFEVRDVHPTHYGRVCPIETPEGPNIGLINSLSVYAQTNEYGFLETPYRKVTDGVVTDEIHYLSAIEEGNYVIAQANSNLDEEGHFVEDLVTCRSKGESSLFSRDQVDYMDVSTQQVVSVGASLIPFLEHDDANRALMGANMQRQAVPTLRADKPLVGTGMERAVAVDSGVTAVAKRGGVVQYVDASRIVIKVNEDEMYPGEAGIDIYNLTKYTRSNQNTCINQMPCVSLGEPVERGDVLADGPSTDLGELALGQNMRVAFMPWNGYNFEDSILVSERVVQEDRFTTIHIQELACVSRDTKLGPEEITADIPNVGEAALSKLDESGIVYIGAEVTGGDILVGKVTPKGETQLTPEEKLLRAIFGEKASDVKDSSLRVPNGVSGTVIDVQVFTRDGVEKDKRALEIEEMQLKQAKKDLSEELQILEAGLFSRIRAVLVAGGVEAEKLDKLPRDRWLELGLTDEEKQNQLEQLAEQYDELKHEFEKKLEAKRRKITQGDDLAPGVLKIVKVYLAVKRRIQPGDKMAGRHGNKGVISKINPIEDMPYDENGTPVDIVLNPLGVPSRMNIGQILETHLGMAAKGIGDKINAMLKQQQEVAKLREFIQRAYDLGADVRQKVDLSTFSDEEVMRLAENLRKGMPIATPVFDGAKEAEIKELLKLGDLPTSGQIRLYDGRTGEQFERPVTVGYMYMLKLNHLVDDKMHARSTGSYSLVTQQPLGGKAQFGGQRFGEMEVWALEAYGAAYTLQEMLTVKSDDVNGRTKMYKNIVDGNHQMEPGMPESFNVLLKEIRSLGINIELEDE
T1 sequence (P0A8T7 whole entry): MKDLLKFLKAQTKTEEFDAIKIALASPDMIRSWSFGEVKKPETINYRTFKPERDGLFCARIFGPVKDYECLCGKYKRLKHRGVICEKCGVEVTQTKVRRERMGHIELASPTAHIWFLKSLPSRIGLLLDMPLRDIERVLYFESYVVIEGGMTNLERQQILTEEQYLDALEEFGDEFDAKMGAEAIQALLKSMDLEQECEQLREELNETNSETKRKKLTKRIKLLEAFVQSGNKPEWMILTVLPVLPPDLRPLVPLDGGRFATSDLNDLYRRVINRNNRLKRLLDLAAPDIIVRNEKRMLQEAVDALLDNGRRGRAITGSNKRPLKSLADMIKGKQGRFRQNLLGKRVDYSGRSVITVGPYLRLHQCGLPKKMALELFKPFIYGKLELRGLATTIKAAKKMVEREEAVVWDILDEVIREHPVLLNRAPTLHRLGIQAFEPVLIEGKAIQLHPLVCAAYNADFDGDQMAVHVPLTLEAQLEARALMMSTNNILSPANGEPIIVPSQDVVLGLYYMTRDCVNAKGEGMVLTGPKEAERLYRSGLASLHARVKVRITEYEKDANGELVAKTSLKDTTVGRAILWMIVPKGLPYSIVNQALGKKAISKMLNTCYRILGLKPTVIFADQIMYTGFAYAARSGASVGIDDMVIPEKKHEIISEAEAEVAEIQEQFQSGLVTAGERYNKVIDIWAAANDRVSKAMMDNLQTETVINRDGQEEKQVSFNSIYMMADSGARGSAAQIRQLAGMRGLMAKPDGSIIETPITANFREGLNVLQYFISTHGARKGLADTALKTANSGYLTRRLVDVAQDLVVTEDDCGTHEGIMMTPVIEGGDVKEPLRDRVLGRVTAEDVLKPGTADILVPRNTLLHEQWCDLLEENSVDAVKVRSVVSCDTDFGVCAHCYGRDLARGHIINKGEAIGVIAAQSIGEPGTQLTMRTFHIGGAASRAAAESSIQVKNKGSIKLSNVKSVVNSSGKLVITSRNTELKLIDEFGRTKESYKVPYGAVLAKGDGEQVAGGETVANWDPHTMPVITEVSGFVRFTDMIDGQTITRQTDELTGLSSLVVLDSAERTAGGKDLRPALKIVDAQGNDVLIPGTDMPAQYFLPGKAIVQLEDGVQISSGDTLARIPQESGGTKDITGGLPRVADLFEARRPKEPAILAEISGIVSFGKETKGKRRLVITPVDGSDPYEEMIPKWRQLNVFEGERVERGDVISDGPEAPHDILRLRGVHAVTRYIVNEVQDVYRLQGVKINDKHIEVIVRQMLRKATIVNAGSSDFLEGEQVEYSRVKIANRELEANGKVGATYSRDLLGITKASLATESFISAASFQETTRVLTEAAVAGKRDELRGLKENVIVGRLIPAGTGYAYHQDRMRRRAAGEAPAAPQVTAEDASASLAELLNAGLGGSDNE
T1 sequence (P0A7Z4 whole entry partner): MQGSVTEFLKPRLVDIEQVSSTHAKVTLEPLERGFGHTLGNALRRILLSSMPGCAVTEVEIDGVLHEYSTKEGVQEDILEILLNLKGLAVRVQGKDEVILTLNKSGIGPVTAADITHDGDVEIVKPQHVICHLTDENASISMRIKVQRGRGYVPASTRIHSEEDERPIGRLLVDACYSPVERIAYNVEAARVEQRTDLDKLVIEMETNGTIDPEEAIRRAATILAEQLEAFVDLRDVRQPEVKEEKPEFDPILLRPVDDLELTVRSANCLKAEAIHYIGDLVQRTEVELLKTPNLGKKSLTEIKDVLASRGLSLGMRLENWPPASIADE
T1 sequence (P0A800 2-91 partner limits assumed): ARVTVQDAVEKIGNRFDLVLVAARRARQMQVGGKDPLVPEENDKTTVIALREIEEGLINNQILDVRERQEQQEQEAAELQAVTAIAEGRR

`CC[C@H](C)[C@@H]1NC(=O)CNC(=O)[C@@H]2Cc3c([nH]c4cc(O)ccc34)[S+]([O-])C[C@@H](NC(=O)CNC1=O)C(=O)N[C@@H](CC(N)=O)C(=O)N1C[C@H](O)C[C@H]1C(=O)N[C@@H]([C@@H](C)[C@@H](O)CO)C(=O)N2` (stereo in doubt) [α-amanitin]: the “RNA synthesis in the presence of inhibitor” value in assay [1] is recorded as “RNA was synthesized”. In addition, the “Inhibition of RNA polymerase activity” value is reported as “no inhibition” in assay [2] and “Inhibitory effects” in assay [3].
